According to BindingDB's records for patent US9090621 (Principia Biopharma, 2015):

Target: Tyrosine-protein kinase BTK (Homo sapiens, UniProt Q06187)
Test: Enzymatic Activity Assay
Details: 25 °C
Procedure: A Caliper-based kinase assay (Caliper Life Sciences, Hopkinton, Mass.) was used to measure inhibition of Btk kinase activity of a compound of Formula (IA), (I′) or (I). […] The reaction was then terminated with EDTA, final concentration 20 mM and the phosphorylated reaction product was quantified on a Caliper Desktop Profiler (Caliper LabChip 3000).

Sequence of Tyrosine-protein kinase BTK (Q06187 whole entry): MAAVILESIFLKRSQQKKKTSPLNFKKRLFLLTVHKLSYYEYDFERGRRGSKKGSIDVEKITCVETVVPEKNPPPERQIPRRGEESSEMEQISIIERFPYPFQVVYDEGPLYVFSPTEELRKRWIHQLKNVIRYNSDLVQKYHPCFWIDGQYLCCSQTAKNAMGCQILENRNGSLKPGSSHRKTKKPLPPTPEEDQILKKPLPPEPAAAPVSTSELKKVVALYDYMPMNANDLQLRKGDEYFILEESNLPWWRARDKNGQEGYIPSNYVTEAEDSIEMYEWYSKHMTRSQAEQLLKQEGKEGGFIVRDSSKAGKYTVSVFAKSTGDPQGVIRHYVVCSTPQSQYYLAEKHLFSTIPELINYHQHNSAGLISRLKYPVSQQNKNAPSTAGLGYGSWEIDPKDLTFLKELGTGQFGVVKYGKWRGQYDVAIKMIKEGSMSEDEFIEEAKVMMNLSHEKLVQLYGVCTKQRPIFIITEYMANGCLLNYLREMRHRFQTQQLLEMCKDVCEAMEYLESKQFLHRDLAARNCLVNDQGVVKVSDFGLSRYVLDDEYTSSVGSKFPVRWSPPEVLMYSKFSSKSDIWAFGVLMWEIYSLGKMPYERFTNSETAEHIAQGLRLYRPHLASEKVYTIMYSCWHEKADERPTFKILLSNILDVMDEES

Q: COc1cc(-c2nn(C3CCCN(C(=O)C(C#N)=CC4CC4)C3)c3ncnc(N)c23)ccc1Oc1ccc(Cl)c(Cl)c1 (stereo unspecified) [US9090621, 5] was tested. Which IC50 did it give?
A: The IC50 was 1 nM.
